Assays:
Settings in all cases: Compound concentration 1000.0 nM
[1] = test system: ALK tyrosine kinase receptor (Homo sapiens), Q9UM73 [C1156Y]
[2] = target: Serine/threonine-protein kinase LATS2 (Homo sapiens) (UniProt Q9NRM7)
[3] = target: Serine/threonine-protein kinase STK11 (Homo sapiens) (UniProt Q15831)
[4] = target: Serine/threonine-protein kinase 17A (Homo sapiens) (UniProt Q9UEE5)
[5] = target: Serine/threonine-protein kinase RIO3 (Homo sapiens) (UniProt O14730)
[6] = test system: Epidermal growth factor receptor (Homo sapiens), P00533 [T790M]
[7] = target: Serine/threonine-protein kinase Sgk2 (Homo sapiens) (UniProt Q9HBY8)
[8] = target: Activin receptor type-1 (Homo sapiens) (UniProt Q04771)
[9] = target: Serine/threonine-protein kinase BRSK2 (Homo sapiens) (UniProt Q8IWQ3)

Measured: residual activity

Chain of Serine/threonine-protein kinase STK11 (Homo sapiens) (Q15831 whole entry): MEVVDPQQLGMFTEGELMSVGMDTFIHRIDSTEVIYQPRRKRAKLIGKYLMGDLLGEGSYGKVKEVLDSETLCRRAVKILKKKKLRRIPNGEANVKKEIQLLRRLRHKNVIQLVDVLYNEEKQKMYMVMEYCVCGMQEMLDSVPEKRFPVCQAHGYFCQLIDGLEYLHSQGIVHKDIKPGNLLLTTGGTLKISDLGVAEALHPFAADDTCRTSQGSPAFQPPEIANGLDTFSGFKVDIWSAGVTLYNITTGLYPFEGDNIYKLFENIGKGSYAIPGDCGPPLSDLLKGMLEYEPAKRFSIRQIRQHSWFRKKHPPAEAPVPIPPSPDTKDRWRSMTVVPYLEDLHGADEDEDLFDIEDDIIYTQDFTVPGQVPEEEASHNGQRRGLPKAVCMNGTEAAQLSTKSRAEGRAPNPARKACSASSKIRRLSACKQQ
Chain of Serine/threonine-protein kinase Sgk2 (Homo sapiens) (Q9HBY8 whole entry): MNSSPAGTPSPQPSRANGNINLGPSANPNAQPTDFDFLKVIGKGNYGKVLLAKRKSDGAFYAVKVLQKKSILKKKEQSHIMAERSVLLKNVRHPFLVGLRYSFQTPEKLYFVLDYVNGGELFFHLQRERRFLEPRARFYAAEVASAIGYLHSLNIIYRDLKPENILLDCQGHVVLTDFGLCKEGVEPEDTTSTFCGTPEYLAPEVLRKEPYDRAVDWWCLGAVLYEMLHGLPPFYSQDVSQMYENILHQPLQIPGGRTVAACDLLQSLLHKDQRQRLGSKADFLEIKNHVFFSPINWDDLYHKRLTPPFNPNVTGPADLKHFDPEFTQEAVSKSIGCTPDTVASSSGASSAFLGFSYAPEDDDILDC
Chain of ALK tyrosine kinase receptor (Homo sapiens), Q9UM73 [C1156Y] (Q9UM73 whole entry C1156Y, looked up): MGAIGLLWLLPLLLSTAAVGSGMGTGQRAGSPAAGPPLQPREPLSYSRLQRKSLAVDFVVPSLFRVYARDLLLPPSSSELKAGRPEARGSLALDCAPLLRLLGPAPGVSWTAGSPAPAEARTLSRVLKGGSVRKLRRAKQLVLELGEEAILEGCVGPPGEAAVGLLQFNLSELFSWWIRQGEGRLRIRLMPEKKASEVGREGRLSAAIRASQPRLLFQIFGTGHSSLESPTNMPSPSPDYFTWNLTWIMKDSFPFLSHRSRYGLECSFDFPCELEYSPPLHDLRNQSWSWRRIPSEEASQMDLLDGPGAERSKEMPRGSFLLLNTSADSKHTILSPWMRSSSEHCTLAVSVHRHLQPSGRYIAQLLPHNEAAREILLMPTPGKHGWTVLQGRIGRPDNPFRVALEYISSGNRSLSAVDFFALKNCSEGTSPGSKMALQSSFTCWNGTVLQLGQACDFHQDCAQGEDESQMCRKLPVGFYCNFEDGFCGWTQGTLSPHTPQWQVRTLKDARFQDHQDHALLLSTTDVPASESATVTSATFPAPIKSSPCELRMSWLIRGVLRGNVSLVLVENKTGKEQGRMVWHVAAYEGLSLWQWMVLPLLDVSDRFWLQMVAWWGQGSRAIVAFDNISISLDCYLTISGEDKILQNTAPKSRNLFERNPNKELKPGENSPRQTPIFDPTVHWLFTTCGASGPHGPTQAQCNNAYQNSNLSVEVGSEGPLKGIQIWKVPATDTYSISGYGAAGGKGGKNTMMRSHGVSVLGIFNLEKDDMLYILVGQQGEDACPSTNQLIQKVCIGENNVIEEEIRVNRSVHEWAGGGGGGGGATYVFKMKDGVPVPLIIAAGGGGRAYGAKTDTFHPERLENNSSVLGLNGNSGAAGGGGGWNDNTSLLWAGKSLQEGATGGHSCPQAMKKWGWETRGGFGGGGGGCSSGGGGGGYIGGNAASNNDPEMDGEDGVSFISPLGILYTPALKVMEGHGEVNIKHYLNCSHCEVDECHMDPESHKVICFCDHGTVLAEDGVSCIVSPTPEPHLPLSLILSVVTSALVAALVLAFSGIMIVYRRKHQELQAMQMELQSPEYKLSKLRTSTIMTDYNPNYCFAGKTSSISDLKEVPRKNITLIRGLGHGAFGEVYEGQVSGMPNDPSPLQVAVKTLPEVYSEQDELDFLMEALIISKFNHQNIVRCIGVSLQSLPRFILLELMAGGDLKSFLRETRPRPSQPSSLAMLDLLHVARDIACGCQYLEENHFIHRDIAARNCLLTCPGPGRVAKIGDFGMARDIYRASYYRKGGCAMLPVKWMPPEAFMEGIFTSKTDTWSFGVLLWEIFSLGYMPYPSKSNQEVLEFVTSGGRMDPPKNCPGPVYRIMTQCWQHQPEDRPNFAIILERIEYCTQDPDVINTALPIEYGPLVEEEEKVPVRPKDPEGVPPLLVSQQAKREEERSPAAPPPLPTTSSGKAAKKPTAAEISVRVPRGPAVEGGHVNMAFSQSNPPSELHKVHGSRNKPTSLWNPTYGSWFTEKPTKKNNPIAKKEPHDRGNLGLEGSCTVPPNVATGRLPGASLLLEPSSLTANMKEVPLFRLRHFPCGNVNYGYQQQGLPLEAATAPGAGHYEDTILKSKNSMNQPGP
Chain of Serine/threonine-protein kinase BRSK2 (Homo sapiens) (Q8IWQ3 whole entry): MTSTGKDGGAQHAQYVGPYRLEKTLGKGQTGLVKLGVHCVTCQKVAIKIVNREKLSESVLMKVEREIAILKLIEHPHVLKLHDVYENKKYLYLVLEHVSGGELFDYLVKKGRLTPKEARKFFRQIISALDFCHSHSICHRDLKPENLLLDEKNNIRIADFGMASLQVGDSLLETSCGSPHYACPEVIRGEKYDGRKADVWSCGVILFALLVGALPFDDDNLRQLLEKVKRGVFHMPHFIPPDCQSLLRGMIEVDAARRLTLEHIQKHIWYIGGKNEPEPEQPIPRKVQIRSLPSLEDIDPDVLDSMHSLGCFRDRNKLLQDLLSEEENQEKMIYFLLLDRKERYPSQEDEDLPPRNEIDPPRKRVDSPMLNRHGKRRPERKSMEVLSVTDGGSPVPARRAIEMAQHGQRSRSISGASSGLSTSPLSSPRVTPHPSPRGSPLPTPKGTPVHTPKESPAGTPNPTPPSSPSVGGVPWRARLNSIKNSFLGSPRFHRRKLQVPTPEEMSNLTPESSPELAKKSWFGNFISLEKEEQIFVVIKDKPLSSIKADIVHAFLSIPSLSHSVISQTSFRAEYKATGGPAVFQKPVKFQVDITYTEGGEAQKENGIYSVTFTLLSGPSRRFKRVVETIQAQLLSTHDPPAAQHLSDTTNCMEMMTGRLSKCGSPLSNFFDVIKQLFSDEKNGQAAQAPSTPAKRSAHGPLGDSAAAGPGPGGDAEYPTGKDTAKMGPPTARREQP
Chain of Serine/threonine-protein kinase RIO3 (Homo sapiens) (O14730 whole entry): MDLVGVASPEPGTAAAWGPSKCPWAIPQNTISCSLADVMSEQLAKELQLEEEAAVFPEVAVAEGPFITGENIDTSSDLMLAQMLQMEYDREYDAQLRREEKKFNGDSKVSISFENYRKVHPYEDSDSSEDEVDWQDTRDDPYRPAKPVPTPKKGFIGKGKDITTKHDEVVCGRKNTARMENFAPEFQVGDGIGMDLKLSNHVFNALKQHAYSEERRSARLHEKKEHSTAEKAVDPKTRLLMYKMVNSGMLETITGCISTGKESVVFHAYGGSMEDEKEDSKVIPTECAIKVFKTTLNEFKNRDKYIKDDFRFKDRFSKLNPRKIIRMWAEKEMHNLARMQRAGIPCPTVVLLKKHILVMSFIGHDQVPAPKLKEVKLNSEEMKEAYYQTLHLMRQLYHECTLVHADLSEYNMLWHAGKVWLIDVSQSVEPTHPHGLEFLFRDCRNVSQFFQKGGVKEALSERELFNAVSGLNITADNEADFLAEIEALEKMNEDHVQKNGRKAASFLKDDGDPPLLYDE
Chain of Activin receptor type-1 (Homo sapiens) (Q04771 whole entry): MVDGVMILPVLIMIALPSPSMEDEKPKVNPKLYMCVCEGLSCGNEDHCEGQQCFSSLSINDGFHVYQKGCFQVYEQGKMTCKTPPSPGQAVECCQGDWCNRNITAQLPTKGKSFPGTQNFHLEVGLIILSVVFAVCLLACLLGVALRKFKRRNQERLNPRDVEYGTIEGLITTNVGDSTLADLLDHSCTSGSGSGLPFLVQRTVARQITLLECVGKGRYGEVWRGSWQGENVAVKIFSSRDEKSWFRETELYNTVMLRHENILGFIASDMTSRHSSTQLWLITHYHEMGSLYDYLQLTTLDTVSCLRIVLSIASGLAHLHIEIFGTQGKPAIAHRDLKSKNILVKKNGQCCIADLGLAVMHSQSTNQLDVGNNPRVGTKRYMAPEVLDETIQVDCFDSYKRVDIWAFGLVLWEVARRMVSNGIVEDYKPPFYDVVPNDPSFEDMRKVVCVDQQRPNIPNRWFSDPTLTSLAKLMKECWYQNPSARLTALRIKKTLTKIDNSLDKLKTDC
Chain of Serine/threonine-protein kinase 17A (Homo sapiens) (Q9UEE5 whole entry): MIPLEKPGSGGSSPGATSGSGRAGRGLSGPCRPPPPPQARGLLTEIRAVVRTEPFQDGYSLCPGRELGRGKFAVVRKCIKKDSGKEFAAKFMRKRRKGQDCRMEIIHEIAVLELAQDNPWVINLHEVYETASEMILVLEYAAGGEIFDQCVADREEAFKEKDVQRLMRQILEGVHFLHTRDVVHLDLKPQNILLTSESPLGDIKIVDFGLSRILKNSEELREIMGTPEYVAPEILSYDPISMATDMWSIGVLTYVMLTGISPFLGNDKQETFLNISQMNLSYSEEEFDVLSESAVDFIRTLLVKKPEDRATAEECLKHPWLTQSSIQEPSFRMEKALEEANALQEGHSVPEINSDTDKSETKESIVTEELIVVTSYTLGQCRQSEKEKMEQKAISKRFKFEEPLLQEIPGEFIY

COc1cccc(CNC(=O)c2nc3scc(COCc4ccc(C(=O)O)cc4)c3c(=O)[nH]2)c1 [T-26c]
inactive: [1] 100% | [2] 86.2% | [3] 97.2% | [4] 73.1% | [5] 63.2% | [6] 92.1% | [7] 84.9% | [8] 94.3% | [9] 77.3%

Reference: ChEMBL document CHEMBL4507300 (2021)
